Counter-ions that a name gives are not always drawn. Where only a bound is given, the exact number is not on record here.

The target in this assay is T1, GST fusion protein containing the Met kinase domain (Homo sapiens, UniProt P08581).
T1 construct: Purified GST fusion protein containing the Met kinase domain, Sugen, Inc
T1 sequence (P08581 1078-1345 limits assumed): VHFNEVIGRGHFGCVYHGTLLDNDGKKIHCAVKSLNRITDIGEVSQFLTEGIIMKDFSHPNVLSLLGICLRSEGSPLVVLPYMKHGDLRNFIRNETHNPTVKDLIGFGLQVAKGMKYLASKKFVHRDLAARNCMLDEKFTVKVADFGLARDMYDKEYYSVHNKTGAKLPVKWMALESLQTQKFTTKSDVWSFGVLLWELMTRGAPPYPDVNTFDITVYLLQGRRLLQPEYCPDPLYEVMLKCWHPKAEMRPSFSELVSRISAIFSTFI
Nature of the assay: MET Transphosphorylation Assay (ELISA, poly(Glu,Tyr) 4:1 substrate). The class given is biochemical. Particulars: met transphosphorylation of poly(glutamic acid:tyrosine 4:1) substrate; two values in a cell separated by '/'. As for the experimental part: MET Transphosphorylation Assay
This assay is used to measure phosphotyrosine levels on a poly(glutamic acid:tyrosine (4:1)) substrate as a means for identifying agonists/antagonists of met transphosphorylation of the substrate.
• 1. […] PBS, Gibco Catalog # 450-1300EB • 4. 50 mM HEPES • 5. […] Purified GST fusion protein containing the Met kinase domain, Sugen, Inc. • 7. TBST Buffer. • 8. 10% aqueous (MilliQue H2O) DMSO. • 9. […] 2× Kinase Dilution Buffer: for 100 ml, mix 10 mL 1M HEPES at pH 7.5 with 0.4 mL 5% BSA/PBS, 0.2 mL 0.1 M sodium orthovanadate and 1 mL 5M sodium chloride in 88.4 mL dH2O. • 11. 4×ATP Reaction Mixture: for 10 mL, mix 0.4 mL 1 M manganese chloride and 0.02 mL 0.1 M ATP in […] dH2O. • 12. 4× Negative Controls Mixture: for 10 mL, mix 0.4 mL 1 M manganese chloride in 9.6 mL dH2O.
13. […] 500 mM EDTA. • 15. Antibody Dilution Buffer: for 100 mL, mix 10 mL 5% BSA/PBS, 0.5 mL 5% Carnation Instant Milk® in PBS and 0.1 mL 0.1 M sodium orthovanadate in 88.4 mL TBST. • 16. Rabbit polyclonal antophosphotyrosine antibody, Sugen, Inc. • 17. Goat anti-rabbit horseradish peroxidase conjugated antibody, Biosource, Inc. • 18. ABTS Solution: for 1 L, mix 19.21 g citric acid, 35.49 g Na2HPO4 and 500 mg ABTS with sufficient dH2O to make 1 L. • 19. ABTS/H2O2: mix 15 mL ABST solution with 2 μL H2O2 five minutes before use. • 20. 0.2 M HCl Procedure: • 1. Coat ELISA plates with 2 μg Poly(Glu-Tyr) in 100 μL PBS, store overnight at 4° C. • 2. Block plate with 150 μL of 5% BSA/PBS for 60 min. • 3. Wash plate twice with PBS, once with 50 mM Hepes buffer pH 7.4. • 4. Add 50 μl of the diluted kinase to all wells. (Purified kinase is diluted with Kinase Dilution Buffer. Final concentration should be 10 ng/well.) • 5. Add 25 μL of the test compound (in 4% DMSO) or DMSO alone (4% in dH2O) for controls to plate. • 6. Incubate the kinase/compound mixture for 15 minutes. • 7. Add 25 μL of 40 mM MnCl2 to the negative control wells. • 8. Add 25 μL ATP/MnCl2 mixture to the all other wells (except the negative controls). Incubate for 5 min. • 9. Add 25 μL 500 mM EDTA to stop reaction. • 10. Wash plate 3× with TBST. • 11. Add 100 μL rabbit polyclonal anti-Ptyr diluted 1:10,000 in Antibody Dilution Buffer to each well. Incubate, with shaking, at room temperature for one hour. • 12. Wash plate 3× with TBST. • 13. […] Add 100 μL per well and incubate at room temperature, with shaking, for one hour. • 14. Wash plate 1× with PBS. • 15. Add 100 μl of ABTS/H2O2 solution to each well. • 16. If necessary, stop the development reaction with the addition of […] of 0.2M HCl per well. • 17.
Background: ELISA stands for enzyme-linked immunosorbent assay.
For orientation: IC50 means the concentration needed to halve the response being measured. Low readings indicate inhibition by little substance, high ones a need for much substance. For `O=C(Cc1ccc(O)c(Cl)c1)N/N=C1\C(=O)Nc2ccc(C(=O)N3CCC(NC4CC4)CC3)c(Cl)c21` [Example I-38, (3-Chloro-4-hydroxy-phenyl)-acetic acid [(3Z)-4-chloro-5-(4-cyclopropylamino-piperidine-1-carbonyl)-2-oxo-1,2-dihydro-indol-3-ylidene]-hydrazide], the IC50 came to 0.026 µM. In the case of `CC(C(=O)N/N=C1\C(=O)Nc2ccc(C(=O)NCCN3CCOCC3)c(Cl)c21)c1ccc(F)cc1` (stereo not drawn) [Example I-39, (3Z)-4-Chloro-3-{[2-(4-fluoro-phenyl)-propionyl]-hydrazono}-2-oxo-2,3-dihydro-1H-indole-5-carboxylic acid (2-morpholin-4-yl-ethyl)-amide], 0.11 µM corresponded to half-maximal inhibition (IC50). Turning to `CC(C(=O)N/N=C1\C(=O)Nc2ccc(C(=O)N3CCC[C@@H]3CN3CCCC3)c(Cl)c21)c1ccc(F)cc1` (stereo partly drawn) [Example I-40, 2-(4-Fluoro-phenyl)-propionic acid [(3Z)-4-chloro-2-oxo-5-[(2R)-(2-pyrrolidin-1-ylmethyl-pyrrolidine-1-carbonyl)]-1,2-dihydro-indol-3-ylidene]-hydrazide], inhibition was half-maximal at 0.43 µM (IC50). In turn, `O=C(Cc1ccc(O)nc1)N/N=C1\C(=O)Nc2ccc(C(=O)N3CCC(NC4CC4)CC3)c(Cl)c21` [Example I-44, (6-Hydroxy-pyridin-3-yl)-acetic acid [(3Z)-4-chloro-5-(4-cyclopropylamino-piperidine-1-carbonyl)-2-oxo-1,2-dihydro-indol-3-ylidene]-hydrazide] displayed an IC50 of 0.57 µM. In the case of `O=C(Cc1ccc(O)nc1)N/N=C1\C(=O)Nc2ccc(C(=O)N3CCC[C@@H]3CNC3CC3)c(Cl)c21` [Example I-45, (6-Hydroxy-pyridin-3-yl)-acetic acid [(3Z)-4-chloro-5-[(2R)-2-cyclopropylaminomethyl-pyrrolidine-1-carbonyl]-2-oxo-1,2-dihydro-indol-3-ylidene]-hydrazide], the IC50 amounted to 1.3 µM.

As for `Cn1cc(CC(=O)N/N=C2\C(=O)Nc3cc(Cl)c(C(=O)NCCN4CCOCC4)cc32)ccc1=O` [Example I-46, (3Z)-6-Chloro-3-{[2-(1-methyl-6-oxo-1,6-dihydro-pyridin-3-yl)-acetyl]-hydrazono}-2-oxo-2,3-dihydro-1H-indole-5-carboxylic acid (2-morpholin-4-yl-ethyl)-amide], the IC50 was found to be 5.84 µM. Molecule `O=C(Cc1ccc(O)cc1)N/N=C1\C(=O)Nc2c(C(=O)O)cccc21` [Example I-47, (3Z)-3-{[2-(4-Hydroxy-phenyl)-acetyl]-hydrazono}-2-oxo-2,3-dihydro-1H-indole-7-carboxylic acid] displayed an IC50 of 14.6 µM. Turning to `CC(C(=O)N/N=C1\C(=O)Nc2ccc(C(=O)N3CC[C@H](N)C3)c(Cl)c21)c1ccc(F)cc1` (stereo partly drawn) [Example I-48, 2-(4-Fluoro-phenyl)-propionic acid [(3Z)-5-[(3S)-3-amino-pyrrolidine-1-carbonyl]-4-chloro-2-oxo-1,2-dihydro-indol-3-ylidene]-hydrazide trifluoroacetate], it took 0.46 µM to reach half-maximal inhibition (IC50). In the case of `O=C(Cc1ccc(O)cc1)N/N=C1\C(=O)Nc2ncccc21` [Example I-49, (4-Hydroxy-phenyl)-acetic acid [(3Z)-2-oxo-1,2-dihydro-pyrrolo[2,3-b]pyridin-3-ylidene)-hydrazide], the IC50 was found to be 0.23 µM. Regarding `CN(C)CC#Cc1ccc2c(c1)/C(=N/NC(=O)Cc1ccc(F)cc1)C(=O)N2` [Example I-50, (4-Fluoro-phenyl)-acetic acid [(3Z)-5-(3-dimethylamino-prop-1-ynyl)-2-oxo-1,2-dihydro-indol-3-ylidene]-hydrazide], the IC50 was determined as 11.9 µM. For the molecule `CC(C(=O)N/N=C1\C(=O)Nc2ccc(C#CCN(C)C)cc21)c1ccc(F)cc1` (stereo not drawn) [Example I-51, 2-(4-Fluoro-phenyl)-propionic acid [(3Z)-5-(3-dimethylamino-prop-1-ynyl)-2-oxo-1,2-dihydro-indol-3-ylidene]-hydrazide], the IC50 is 5.1 µM. Molecule `CC(C(=O)N/N=C1\C(=O)Nc2c(Cl)ccc(Cl)c21)c1ccc2c(c1)OCO2` (stereo not drawn) [Example I-52, 2-Benzo[1,3]dioxol-5-yl-propionic acid [(3Z)-4,7-dichloro-2-oxo-1,2-dihydro-indol-3-ylidene]-hydrazide] came in with an IC50 of 0.26 µM.

Take `CC(C(=O)N/N=C1\C(=O)Nc2ccc(Br)cc21)c1ccc2c(c1)OCO2` (stereo not drawn) [Example I-53, 2-Benzo[1,3]dioxol-5-yl-propionic acid [(3Z)-5-bromo-2-oxo-1,2-dihydro-indol-3-ylidene]-hydrazide]: the IC50 was determined as 0.74 µM. `CC(C(=O)N/N=C1\C(=O)Nc2ccc(NC(=O)CN3CCOCC3)cc21)c1ccc(F)cc1` (stereo not drawn) [Example I-54] returned an IC50 of 5.92 µM.

Molecule `CC(C(=O)N/N=C1\C(=O)Nc2ccc(NC(=O)CN3CCCC3)cc21)c1ccc(F)cc1` (stereo not drawn) [Example I-55, N-((3Z)-3-{[2-(4-Fluoro-phenyl)-propionyl]-hydrazono}-2-oxo-2,3-dihydro-1H-indol-5-yl)-2-pyrrolidin-1-yl-acetamide] came in with an IC50 of 6.16 µM. Turning to `COC(=O)c1cccc2c1/C(=N/NC(=O)Cc1ccc(O)cc1)C(=O)N2` [Example I-56, (3Z)-3-{[2-(4-Hydroxy-phenyl)-acetyl]-hydrazono}-2-oxo-2,3-dihydro-1H-indole-4-carboxylic acid methyl ester], the IC50 is 0.54 µM.

`O=C1Nc2c(Cl)ccc(Cl)c2/C1=N/NC(=O)C1Cc2ccccc2C1` [Example I-57]: the IC50 is over 20 µM. `Cc1ccc(C)c2c1NC(=O)/C2=N\NC(=O)C1Cc2ccccc2C1` [Example I-58, Indan-2-carboxylic acid [(3Z)-4,7-dimethyl-2-oxo-1,2-dihydro-indol-3-ylidene]-hydrazide] had an IC50 of over 20 µM.

Consider `O=C1Nc2ccccc2/C1=N/NC(=O)C1Cc2ccccc2C1` [Example I-59, Indan-2-carboxylic acid [(3Z)-2-oxo-1,2-dihydro-indol-3-ylidene)-hydrazide], for which the IC50 is over 20 µM. The molecule `Cc1cc(CCN2CCCC2)c(C)c2c1NC(=O)/C2=N\NC(=O)C(C)c1ccc(F)cc1` (stereo not drawn) [Example I-62, 2-(4-Fluoro-phenyl)-propionic acid [(3Z)-4,7-dimethyl-2-oxo-5-(2-pyrrolidin-1-yl-ethyl)-1,2-dihydro-indol-3-ylidene]-hydrazide] displayed an IC50 of 0.98 µM. Molecule `CCN(CC)CCc1cc(C)c2c(c1C)/C(=N/NC(=O)C(C)c1ccc(F)cc1)C(=O)N2` (stereo not drawn) [Example I-63, 2-(4-Fluoro-phenyl)-propionic acid [(3Z)-5-(2-diethylamino-ethyl)-4,7-dimethyl-2-oxo-1,2-dihydro-indol-3-ylidene]-hydrazide] had an IC50 of 1.05 µM. For `O=C(Cc1ccccc1)N/N=C1\C(=O)Nc2ccccc21` [II-3, Phenyl-acetic acid [(3Z)-2-oxo-1,2-dihydro-indol-3-ylidene]-hydrazide], half-maximal inhibition (IC50) required 6.66 µM. Molecule `O=C(Cc1ccc(Cl)cc1)N/N=C1\C(=O)Nc2ccccc21` [II-4, (4-Chloro-phenyl)-acetic acid [(3Z)-2-oxo-1,2-dihydro-indol-3-ylidene]-hydrazide] gave an IC50 of 5.87 µM. The result for `COc1ccc(CC(=O)N/N=C2\C(=O)Nc3ccccc32)cc1OC` [II-5, (3,4-Dimethoxy-phenyl)-acetic acid [(3Z)-2-oxo-1,2-dihydro-indol-3-ylidene]-hydrazide] reads over 20 µM; that for `O=C(Cc1ccccc1)N/N=C1\C(=O)Nc2ccccc21` [II-6, Phenyl-acetic acid [(3E)-2-oxo-1,2-dihydro-indol-3-ylidene]-hydrazide], over 20 µM; that for `O=C(Cc1ccc(Cl)cc1)N/N=C1\C(=O)Nc2ccccc21` [II-7, (4-Chloro-phenyl)-acetic acid [(3E)-2-oxo-1,2-dihydro-indol-3-ylidene]-hydrazide], over 20 µM. In the case of `CC(C)Oc1ccc(CC(=O)N/N=C2\C(=O)Nc3ccccc32)cc1` [II-9, (4-Isopropoxy-phenyl)-acetic acid [(3Z)-2-oxo-1,2-dihydro-indol-3-ylidene]-hydrazide], the IC50 is over 20 µM.

Source of the values: patent US20060009493A1, “Indolinone hydrazides as c-Met inhibitors” (Sugen, Inc., priority 2003, published 2006).
